What was measured:
[1] = target: T1, human CXCR4 (Homo sapiens, UniProt P61073); experiment: CXCR4 β-arrestin recruitment assay (PathHunter); format: cell-based; settings: human CXCR4-C2Cl2 cells, relative to CXCL-12
T1 construct: host or cells: C2C12
Procedure: (§1) Compounds were evaluated for agonist activity using a β-arrestin recruitment assay based on β-galactosidase complementation (PathHunter, DiscoverX). Stable human ACKR3-β-arrestin-2-CHO cells (DiscoverX) were plated into 96-well white-walled assay plates at 15,000 cells/well in Cell Plating Reagent 2 (DiscoveRx) and incubated at 37° C., 5% CO2 overnight. The next day, test compounds were prepared at 10× concentration in DPBS/1% DMSO and 10 μL was added to the cells. CXCL-12 was included as a positive agonist control. Following a 1.5 hr incubation at 37° C., 55 μL of detection reagent (prepared according to the manufacturer's specifications) was added to each well. The plate was incubated at room temperature for 1 hr, after which luminescence was measured at 1 sec/well using an EnSpire multimode plate reader (PerkinElmer). Relative luminescence units (RLU) were plotted against the log of compound concentration and data were fit to a three-parameter logistic curve to generate EC50 values (GraphPad Prism). EC50 and % Emax values are reported as means±SEM and are the result of at least two independent experiments performed in duplicate. The CXCR4 assay was run similarly except that human CXCR4-C2Cl2 cells (DiscoverX) were plated at 20,000 cells/well in Cell Plating Reagent 9. The next day, the media was removed and cells were incubated with Cell Plating Reagent 4 for 3 hrs, after which the assay was conducted as described above.

[2] = target: ACKR3 (Homo sapiens, UniProt P25106); experiment: ACKR3 β-arrestin recruitment assay (PathHunter, β-galactosidase complementation); format: cell-based; settings: for EC50: stable human ACKR3-β-arrestin-2-CHO cells, mean ± SEM, at least two independent experiments in duplicate; for Emax: read-out: ACKR3 β-arrestin % CXCL12 Emax ± SEM
Procedure: as §1

T1 sequence (P61073 whole entry): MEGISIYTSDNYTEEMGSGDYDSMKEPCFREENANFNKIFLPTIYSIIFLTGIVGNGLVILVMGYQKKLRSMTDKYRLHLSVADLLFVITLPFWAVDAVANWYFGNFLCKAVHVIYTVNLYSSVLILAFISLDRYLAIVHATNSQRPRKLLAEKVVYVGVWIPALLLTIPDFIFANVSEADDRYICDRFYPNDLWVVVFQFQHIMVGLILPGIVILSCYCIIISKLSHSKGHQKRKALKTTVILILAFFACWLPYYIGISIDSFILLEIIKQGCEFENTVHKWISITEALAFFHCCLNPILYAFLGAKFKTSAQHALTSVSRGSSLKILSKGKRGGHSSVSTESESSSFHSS
Sequence of ACKR3 (P25106 whole entry): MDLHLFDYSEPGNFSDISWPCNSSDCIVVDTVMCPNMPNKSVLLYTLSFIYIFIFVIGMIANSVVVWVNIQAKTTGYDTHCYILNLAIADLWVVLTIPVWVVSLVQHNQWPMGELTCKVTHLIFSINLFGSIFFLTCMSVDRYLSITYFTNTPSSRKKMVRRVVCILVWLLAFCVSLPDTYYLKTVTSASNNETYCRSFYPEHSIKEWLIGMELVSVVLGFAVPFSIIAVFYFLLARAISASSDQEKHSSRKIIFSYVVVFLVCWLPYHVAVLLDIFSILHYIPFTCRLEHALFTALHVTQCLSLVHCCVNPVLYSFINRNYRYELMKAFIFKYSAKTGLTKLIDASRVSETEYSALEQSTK

Row | Structure (SMILES) | CXCR4 β-arrestin % CXCL-12Emax (n = 2) [1] [%] | EC50 [2] [µM] | Emax [2] [%]
1 | C/C=C1/CN(Cc2ccc(OC)cc2)CC[C@H]1C(O)c1cc2cc(C#N)ccc2n1S(=O)(=O)c1ccccc1 (stereo partly drawn) [WW-70, 2-{[(3E, 4R)-(3-ethylidene-1-(4-methoxybenzyl)piperidin-4-yl)](hydroxy)methyl}-1-(phenylsulfonyl)-1H-indole-5-carbonitrile] | −2 | > 10 | 
2 | C/C=C1/CN(CCCCC)CC[C@H]1C(=O)c1cc2cc(-c3ccc(F)cc3)ccc2[nH]1 [WW-73, [(3E,4R)-3-ethylidene-1-pentylpiperidin-4-yl][5-(4-fluorophenyl)-1H-indol-2-yl]methanone] | 9 | > 10 | 
3 | C/C=C1/CN(CCCCC)CC[C@H]1C(O)c1cc2ccccc2n1S(=O)(=O)c1ccccc1 (stereo partly drawn) [WW-74] | 3 | 0.177 ± 0.01 | 172 ± 6

Other lines, results leading:

Row | CXCR4 β-arrestin % CXCL-12Emax (n = 2) [1] [%] | EC50 [2] [µM] | Emax [2] [%] | Structure (SMILES)
4 | 4 | > 10 |  | C/C=C1/CN(CCCCCC(=O)OC)CC[C@H]1C(=O)c1cc2ccccc2[nH]1 [WW-71, Methyl 6-[(3E,4R)-3-ethylidene-4-(1H-indol-2-ylcarbonyl)piperidin-1-yl]hexanoate]
5 | 4 | 3.78 ± 0.98 | 145 ± 16 | C/C=C1/CN(CCCCOc2ccccc2)CC[C@H]1C(=O)c1cc2ccccc2[nH]1 [WW-72, (3E,4R)-(3-ethylidene-1-(4-phenoxybutyl)piperidin-4-yl)(1H-indol-2-yl)methanone]
